Columns and labels:
ΔCBM [1] = molecular target: T1, ΔCBM (Meiothermus taiwanensis, UniProt A0A399DY85, DEL251-380); experiment: turnover in the soaked crystal (glucose found instead of cellopentaose); format: binding; conditions: crystal soak, 10 mM cellopentaose
T1 construct: gene celH; CBM-deleted MtGlu5, residues 1-235 joined to 366-455 (catalytic domain only); pET-21, C-terminal His6; E. coli BL21(DE3)

MtGlu5 [2] = molecular target: T2, MtGlu5 (Meiothermus taiwanensis, UniProt A0A399DY85); experiment: hydrolysis, specific activity (reducing sugar, DNS); format: biochemical; conditions: optimum pH 5.0, 60 °C
T2 construct: gene celH; residues 15-470, signal peptide removed, catalytic domain with inserted CBM29-like domain (236-365); pET-21, C-terminal His6; E. coli BL21(DE3)

ΔCBM [3] = molecular target: T1, ΔCBM; experiment: X-ray crystal structure (crystal soaked with […] cellobiose); format: binding; conditions: 1.53 Å; between Trp43 and Trp224
MtGlu5 [4] = molecular target: T2, MtGlu5; experiment: X-ray crystal structure (co-crystallised with CMC); format: binding; conditions: 2.99 Å; glucose from CMC hydrolysis, stacked between Trp43 and Trp224 in the catalytic pocket (-2 or -3 subsite)
ΔCBM [5] = molecular target: T1, ΔCBM; experiment: X-ray crystal structure (crystal soaked with cellopentaose); format: binding; conditions: 1.53 Å; between Trp43 and Trp224; glucose from cellopentaose cleavage

T1 sequence (A0A399DY85 entry or part of it DEL251-380): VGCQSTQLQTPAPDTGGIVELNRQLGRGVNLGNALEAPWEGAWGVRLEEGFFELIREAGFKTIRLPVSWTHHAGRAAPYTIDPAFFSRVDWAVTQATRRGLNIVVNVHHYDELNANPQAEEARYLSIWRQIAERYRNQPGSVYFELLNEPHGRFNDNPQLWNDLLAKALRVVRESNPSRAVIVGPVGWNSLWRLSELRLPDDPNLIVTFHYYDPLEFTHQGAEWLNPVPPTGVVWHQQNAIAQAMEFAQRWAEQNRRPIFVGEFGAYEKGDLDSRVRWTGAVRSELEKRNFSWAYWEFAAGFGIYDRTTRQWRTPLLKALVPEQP
T2 sequence (A0A399DY85 entry or part of it): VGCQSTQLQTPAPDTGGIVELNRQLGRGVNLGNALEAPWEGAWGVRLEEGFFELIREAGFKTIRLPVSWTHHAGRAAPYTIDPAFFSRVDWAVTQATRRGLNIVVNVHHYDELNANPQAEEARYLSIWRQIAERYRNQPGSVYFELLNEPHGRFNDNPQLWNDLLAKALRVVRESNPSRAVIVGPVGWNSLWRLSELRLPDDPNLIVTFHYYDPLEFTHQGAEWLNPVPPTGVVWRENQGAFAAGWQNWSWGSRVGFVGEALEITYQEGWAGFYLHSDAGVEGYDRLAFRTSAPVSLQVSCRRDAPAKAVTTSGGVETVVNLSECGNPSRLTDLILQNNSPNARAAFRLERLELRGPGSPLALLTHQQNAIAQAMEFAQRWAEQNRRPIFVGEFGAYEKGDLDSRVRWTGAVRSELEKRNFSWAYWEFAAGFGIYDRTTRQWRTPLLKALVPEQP

OC[C@H]1O[C@@H](O[C@H]2[C@H](O)[C@@H](O)[C@H](O[C@H]3[C@H](O)[C@@H](O)[C@H](O[C@H]4[C@H](O)[C@@H](O)[C@H](O[C@H]5[C@H](O)[C@@H](O)C(O)O[C@@H]5CO)O[C@@H]4CO)O[C@@H]3CO)O[C@@H]2CO)[C@H](O)[C@@H](O)[C@@H]1O (some centres unmarked) [cellopentaose]
turnover in the soaked crystal (glucose found instead of cellopentaose) (ΔCBM [1]): presence of bound glucose rather than cellopentaose in the former crystal | hydrolysis, specific activity (reducing sugar, DNS) (MtGlu5 [2]): specific activities of MtGlu5 towards CMC, β-glucan (barley) and cellopentaose

OC[C@H]1O[C@@H](O[C@H]2[C@H](O)[C@@H](O)C(O)O[C@@H]2CO)[C@H](O)[C@@H](O)[C@@H]1O (some centres unmarked) [cellobiose]
X-ray crystal structure (crystal soaked with 10 mM cellobiose) (ΔCBM [3]): ΔCBM crystals in complex with glucose and cellobiose were obtained by soaking with cellopentaose and cellobiose

OC[C@H]1OC(O)[C@H](O)[C@@H](O)[C@@H]1O (some centres unmarked) [glucose]
X-ray crystal structure (co-crystallised with CMC) (MtGlu5 [4]): Bound glucose was observed in the MtGlu5 crystal | X-ray crystal structure (crystal soaked with cellopentaose) (ΔCBM [5]): ΔCBM crystals in complex with glucose and cellobiose were obtained by soaking with cellopentaose and cellobiose

Source: paper PMC9063844, “Synergic action of an inserted carbohydrate-binding module in a glycoside hydrolase family 5 endoglucanase” (Acta Crystallographica. Section D, Structural Biology, 2022)
